According to patent US20190209515A1, “Treatment of Bladder Cancer by Intratumoral Injection of Taxane Particles” (CRITITECH, INC., priority 2018, published 2019):
Where “and” joins values, the source holds several entries; their conditions need not be identical. Equal entries are not always repeated. Entries after “also recorded” stand apart in the source; their conditions may differ. Marks after values point to notes of the source that are not given here. Each block holds one compound with its values, some of them ahead of it.

What was measured:
[1] = tested on: UM-UC-3 bladder cancer cell line (ATCC-CRL-1749) tumors; assay: Human bladder cancer (UM-UC-3) mouse xenograft study, tumor volume; assay type: in vivo
Method: (§1) Tumor volume was determined with calipers. […] Animals were weighed 2×/week.
At day 18 after tumor implant, when average tumor size was between 50-325 mm^3, animals were sorted into five groups with equal average tumor sizes and were treated as shown in Table 8 below.
The second treatments (2nd cycle) occurred 7 days following first treatment (1st cycle) and third treatments (3rd cycle) occurred 14 days following the first treatment. The docetaxel solution IV was administered via the tail vein.
Vehicle (Control): Diluted 1 ml of the 1% Polysorbate 80/8% Ethanol in normal saline (0.9% Sodium Chloride for Injection) reconstitution solution with 1.5 mL of normal saline (0.9% Sodium Chloride for Injection, USP). […] Vigorously hand shook the vial with inversions for 1 minute. […] Allowed the suspension to sit undisturbed for at least 5 minutes to reduce entrapped air and foam. […] Vortexed to mix.
Tumor volumes were determined 2×/week for the duration of the study (61 days).

[2] = tested on: UM-UC-3 bladder cancer cell line (ATCC-CRL-1749) tumors; assay: UM-UC-3 xenograft study, H&E histology and immunohistochemistry of tumor site tissue; assay type: in vivo, mouse
[3] = mouse, in vivo, iv
Method: as §1

[4] = IV docetaxel 3 cycles, of 7 tumors measured, day of death or euthanasia
[5] = not told, pH 4
Method: Receptor Fluid: The receptor fluid consisted of 60 vol %/40 vol % methanol/water at pH 4 with 0.01 wt % NaN3 (added as a preservative). […] After mixing and degassing the Receptor Fluid it was filtered through a ZapCap CR 0.2 μm membrane under vacuum; the Receptor Fluid, so filtered, was stirred for an additional 20 minutes under vacuum.

[6] = Particle size analysis (light obscuration / laser diffraction); assay type: physicochemical
Method: Particle size was analyzed by both light obscuration and laser diffraction methods. An Particle Sizing Systems AccuSizer 780 SIS system was used for the light obscuration method and Shimadzu SALD-7101 was used for the laser diffraction method.
The vials were vortexed for approximately 10 seconds and then sonicated in a sonic bath approximately 1 minute.
The vial was vortexed for approximately 10 seconds and then sonicated in a sonic bath for approximately 2 minutes. This suspension was used for laser diffraction analysis. Unused suspension was poured into a 125 mL particle-free plastic bottle, which was then filled to approximately 100 mL with filtered dispersant. The suspension was vortex for approximately 10 seconds and then sonicated in the sonic bath for approximately 2 minutes. This diluted suspension was used for light obscuration analysis.
A background test was first performed prior to analyzing particles on the AccuSizer 780 SIS. A new particle-free plastic bottle was filled with blank suspension solution by pumping from a reservoir, using a peristaltic pump, through a 0.22 μm Millipore filter and into the bottle. A background analysis was run to ensure the particle/mL count was below 100 particles/mL. […] Once the analysis was completed, the background data was removed and any measurement with less than four counts was removed. […]

[7] = BET specific surface area analysis; assay type: physicochemical
Method: As used herein, the “specific surface area” (SSA) is the total surface area of the taxane particle per unit of taxane mass as measured by the Brunauer-Emmett-Teller (“BET”) isotherm by the following method: a known mass between 200 and 300 mg of the analyte is added to a 30 mL sample tube. […] The automated test is then carried out using the BETWIN® software package and the surface area of each sample is subsequently calculated. As will be understood by those of skill in the art, the “taxane particles” can include both agglomerated taxane particles and non-agglomerated taxane particles; since the SSA is determined on a per gram basis it takes into account both the larger agglomerated and smaller non-agglomerated taxane particles in the composition. The agglomerated taxane particles are defined herein as individual taxane particles that are formed by the agglomeration of smaller particles which fuse together forming the larger individual taxane particles, all of which occurs during the processing of the taxane particles. […]
A known mass between 200 and 300 mg of the analyte was added to a 30 mL sample tube. […] The automated test was then carried out using the BETWIN® software package and the surface area of each sample was subsequently calculated.

[8] = Paclitaxel dissolution study, methanol/water 50/50, USP Apparatus II; assay type: physicochemical; conditions: methanol/water 50/50 (v/v), 37° C., pH 7, USP Apparatus II 75 rpm
Method: Beads were transferred to a stainless steel mesh container and placed in the dissolution bath containing methanol/water 50/50 (v/v) media at 37° C., pH 7, and a USP Apparatus II (Paddle), operating at 75 rpm. […] Absorbance values of the samples were compared to those of standard solutions prepared in dissolution media to determine the amount of material dissolved. […] Absorbance values of the samples were compared to those of standard solutions prepared in dissolution media to determine the amount of material dissolved.
Beads were transferred to a stainless steel mesh container and placed in the dissolution bath containing methanol/water 50/50 (v/v) media at 37° C., pH 7, and a USP Apparatus II (Paddle), operating at 75 rpm. […] Absorbance values of the samples were compared to those of standard solutions prepared in dissolution media to determine the amount of material dissolved.

[9] = Docetaxel dissolution study, methanol/water 15/85, USP Apparatus II; assay type: physicochemical; conditions: methanol/water 15/85 (v/v), 37° C., pH 7, USP Apparatus II 75 rpm
Method: The procedures used to determine the dissolution rates are as follows. […] Beads were transferred to a stainless steel mesh container and placed in the dissolution bath containing methanol/water 50/50 (v/v) media at 37° C., pH 7, and a USP Apparatus II (Paddle), operating at 75 rpm. At 10, 20, 30, 60, and 90 minutes, a 5 mL aliquot was removed, filtered through a 0.22 μm filter and analyzed on a UV/VIS spectrophotometer at 227 nm. Absorbance values of the samples were compared to those of standard solutions prepared in dissolution media to determine the amount of material dissolved. […] At 5, 15, 30, 60, 120 and 225 minutes, a 5 mL aliquot was removed, filtered through a 0.22 μm filter, and analyzed on a UV/VIS spectrophotometer at 232 nm. Absorbance values of the samples were compared to those of standard solutions prepared in dissolution media to determine the amount of material dissolved.
At 5, 15, 30, 60, 120 and 225 minutes, a 5 mL aliquot was removed, filtered through a 0.22 μm filter, and analyzed on a UV/VIS spectrophotometer at 232 nm. Absorbance values of the samples were compared to those of standard solutions prepared in dissolution media to determine the amount of material dissolved.

[10] = IV Docetaxel 3 cycles, individual animals
[11] = IV Docetaxel 3 cycles, 2 animals

Compound: docetaxel
tumor volume ([1]; Docetaxel solution 30 mg/kg IV, 3 weekly cycles, to Day 61 post implant): subsequently increased; also recorded: somewhat effective at treating small tumors, but not very effective in treating large tumors
Necropsy volume [1, 10]: 2872 mm^3 and 1652 mm^3
general histological observations (H&E) ([2]; Docetaxel solution IV 3 cycles): many viable appearing tumor masses with some macrophage and occasional lymphocytic response along with some tumor necrosis
Maximum size of viable invasive carcinoma on the slide >10 mm, number of animals [2, 11]: 2*
Percentage of tumor showing necrosis 11-50%, number of animals [2, 11]: 1
Percentage of tumor showing necrosis 50-90%, number of animals [2, 11]: 1
Macrophage infiltrate density Mild, number of animals ([2]; IV Docetaxel 3 cycles, 2 animals, H&E and CD68): 2
Maximum tumor size on slide [2, 10]: 11 mm and 15 mm
initial animal weight loss [3]: generally greater
signs of peripheral neuropathy [3]: greater signs of peripheral neuropathy
tumors with docetaxel levels above the limit of quantitation (1 ng/g) [4]: 1

solubility in the Receptor Fluid [5]: sufficient to maintain sink conditions
Compound: CC(=O)O[C@H]1C(=O)[C@@]2(C)[C@H]([C@H](OC(=O)c3ccccc3)[C@]3(O)C[C@H](OC(=O)[C@H](O)[C@@H](NC(=O)c4ccccc4)c4ccccc4)C(C)=C1C3(C)C)[C@]1(OC(C)=O)CO[C@@H]1C[C@@H]2O [paclitaxel]

Number Mean [6]: 1.16 um
Surface Area [7]: 10.4 m^2/g
Dissolution (30 min) [8]: 18%
Compound: CC(=O)O[C@H]1C(=O)[C@@]2(C)[C@H]([C@H](OC(=O)c3ccccc3)[C@]3(O)C[C@H](OC(=O)[C@H](O)[C@@H](NC(=O)c4ccccc4)c4ccccc4)C(C)=C1C3(C)C)[C@]1(OC(C)=O)CO[C@@H]1C[C@@H]2O [Paclitaxel Raw Material, paclitaxel]

Dissolution (30 min) [9]: 11%
Compound: CC(=O)O[C@@]12CO[C@@H]1C[C@H](O)[C@@]1(C)C(=O)[C@H](O)C3=C(C)[C@@H](OC(=O)[C@H](O)[C@@H](NC(=O)OC(C)(C)C)c4ccccc4)C[C@@](O)([C@@H](OC(=O)c4ccccc4)[C@H]21)C3(C)C [Docetaxel Raw Material, docetaxel]
